From patent publication US20230263798A1, “COMPOSITIONS AND METHODS FOR TREATING THERAPY RESISTANT CANCER” (The General Hospital Corporation, priority 2020, published 2023)

Key:
[1] = system: METTL3; assay: Western blot analysis of METTL3 in MCF7 cells; type: cell-based; settings: MCF7 cells, agent alone vs untreated/buffer, Western blot
Excerpt: (§1) The Western blot includes samples with control shRNA or shMETTL3. […] Tubulin and Histone serve as Western blot loading controls. Data are average of 3 replicates +/-SEM. See also FIGS. 2A-2G.
(§2) Data are average of 3 replicates +/-SEM. Tubulin serves as the loading control.
(§3) Tubulin and Histone serve as Western blot loading controls. Data are average of 3 replicates +/-SEM. See also FIGS. 4A-4H.
(§4) Actin and Tubulin are loading controls for Western blots. Data are average of 3 replicates +/-SEM.
(§5) FIGS. 8C and 8D show Western blot analysis of PARP1, phospho-elF2α, METTL3 with doxorubicin or Sal003 treatment. […] 500 nM Doxorubicin treated MCF7 cells were co-treated with 6uM of Enzastaurin or DMSO buffer. […] Data are average of 3 replicates +/-SEM.
(§6) To determine the mechanisms of specific mRNA expression in chemosurviving cancer cells, we examined RNA binding regulators in chemosurviving MCF7 breast cancer cells, isolated after doxorubicin chemotherapy treatment.

[2] = system: METTL3; assay: Western blot of METTL3 in BT549 cells; type: cell-based; settings: over time of treatment
[3] = system: phospho-elF2α; assay: Western blot of elF2α phosphorylation in MCF7 cells; type: cell-based; settings: MCF7 cells, agent alone, Western blot
Protocol: as §5

[4] = system: phospho-elF2α; assay: Western blot of elF2α phosphorylation in BT549 cells; type: cell-based; settings: over time of treatment
Protocol: as §2
as §6, with “treatment. […] The increase observed is transient and is not observed at 48 h of treatment (FIG. 2A).” for “treatment.”

[5] = system: m6A on RNA; assay: m6A on ribosomal RNA depleted RNA (dot blot, 2D-TLC); type: cell-based; settings: ribosomal RNA depleted RNA from treated vs untreated MCF7 cells; dot blot or 2D-TLC
Protocol: The Western blot includes samples with control shRNA or shMETTL3. […] Tubulin and Histone serve as Western blot loading controls. Data are average of 3 replicates +/-SEM. See also FIGS. 2A-2G. […]
To test whether the increased m6A modification enzymes lead to increased m6A modification on RNA, ribosomal RNA depleted RNA from doxorubicin treated cells compared to untreated cells by dot blot analyses was tested. […] Consistent with decreased METTL3 upon knockdown, the dot blot signal is depleted when METTL3 is knocked down (FIG. 1B). Second, RNA from doxorubicin treated cells for m6A by two-dimensional-thin layer chromatography separation (2D-TLC) was performed (H. Grosjean, G. Keith, L. Droogmans, Detection and quantification of modified nucleotides in RNA using thin-layer chromatography. Methods in molecular biology (Clifton, N.J.) 265, 357-391 (2004)).

[6] = system: METTL3; assay: Western blot of METTL3 in breast cancer patient samples grown in 3D cultures; type: cell-based; settings: hormone positive breast cancer patient samples grown as tumor spheres
Excerpt: as §1
As METTL3 increases in chemosurviving cells and increases m6A on RNA, we tested whether METTL3 increase is needed for chemosurvival by depleting METTL3 or overexpressing METTL3 or a catalytically defective METTL3 (CD-M3) mutant and then tested these cells for doxorubicin survival.

[7] = system: METTL3; assay: Western blot of METTL3 in patient-derived xenografts treated in vivo; settings: hormone positive breast cancer patient derived xenografts, 2-1 0 mg/kg doxorubicin in vivo
[8] = system: METTL3 mRNA; assay: METTL3 mRNA level and translation (qPCR, polysome fractionation, nascent amino acid labeling); type: cell-based
Protocol: as §3, §4
To verify that the increase in METTL3 was at the translation level, polysome analysis was conducted first. […] We next verified increased polysome association of METTL3 mRNA with Y10B antibody immunoprecipitation in doxorubicin treated and in Sal003 cells compared to buffer treated cells (FIGS. 3I and 4F).

[9] = system: PARP1; assay: Western blot analysis of PARP1; type: cell-based; settings: treated cells
Protocol: as §5
Consistently, doxorubicin treated cells are sensitive to PARP inhibitors, such as Talazoparib (BMN-673, FIG. 8B).

[10] = system: METTL3 5′UTR; assay: Firefly luciferase reporter bearing the 5′UTR of METTL3; type: cell-based; settings: doxorubicin treated vs untreated cells, normalized to Renilla
Excerpt: FIGS. 5A-5I show HuR and associated translation initiation factors promote METTL3 translation in doxorubicin resistant cells. […] Tubulin is the loading control for Western blots. Data are average of 3 replicates +/-SEM. See also FIGS. 6A-6K.
To test if METTL3 mRNA encodes for cis-acting elements that direct its translation upregulation in doxorubicin-treated cells, we constructed Luciferase reporters bearing METTL3 mRNA 5′UTR and 3′UTR, or their reverse sequences or vector sequence as controls. We tested these reporters and their controls in untreated and doxorubicin treated cells. […] Importantly, RNA levels of the 5′UTR reporter remained unaffected between doxorubicin treated compared to untreated cells, and compared to reverse or vector reporters, indicating translation control.

[11] = system: HuR; assay: Western blot of HuR; type: cell-based; settings: over time of doxorubicin treatment
Excerpt: Western blot is shown of other RNA binding proteins that increase in mass spectrometry data. […] FIGS. 6J and 6K show Hexim, PPM1G and HuR increase in chemotreated patient samples and on doxorubicin treatment.

[12] = system: METTL14; assay: Western blot of METTL14 in breast cancer patient samples grown as tumor spheres; type: cell-based

SMILES: COc1cccc2c1C(=O)c1c(O)c3c(c(O)c1C2=O)C[C@@](O)(C(=O)CO)C[C@@H]3O[C@H]1C[C@H](N)[C@H](O)[C@H](C)O1 [doxorubicin]
- METTL3 level [1]: increases
- METTL3 level [2]: transient increase
- elF2α phosphorylation [3]: phosphorylated over time
- elF2α phosphorylation [4]: transient increase
- m6A on RNA [5]: more m6A modified RNA
- METTL3 level [6]: increased
- METTL3 level [7]: increases
- labeled (newly translated) METTL3, nascent translation assay ([8]; Click-it Puro labeling, METTL3 immunoprecipitation, treated vs untreated): increase
- METTL3 and METTL14 RNA levels by qPCR ([8]; doxorubicin treated vs untreated cells): no increase
- METTL3 mRNA on polysomes compared to monosomes ([8]; treated vs buffer treated cells, polysome fractionation and qPCR): increased
- PARP1 level [9]: increases
- METTL3 5′UTR luciferase reporter translation [10]: enhanced translation
- HuR level [11]: increase
- METTL14 level [12]: Increase
